According to patent publication US12178878B2, “Amyloid peptide scaffolds coordinate with Alzheimer's disease drugs” (The University of Massachusetts, priority 2018, dated 2024):

How the values were obtained:
[1] = test system: […] (SEQ ID NO: 3) amyloid peptide; experiment: Amyloid peptide/inhibitor coordination in dilute solution (1 mg/mL), drug captured after pellet washings; assay type: binding; conditions: for AD compound captured, Wash 1 / AD compound captured, Wash 2 / AD compound captured, Wash 3: 150 μM inhibitor loaded; for AD compound captured, Wash 1: 1st pellet wash; for AD compound captured, Wash 2: 2nd pellet wash; for AD compound captured, Wash 3: 3rd pellet wash; for fraction of the 150 μM loaded drug incorporated into the peptide: UV-Vis, first wash
Procedure: Amyloid Peptide/Inhibitor Coordination Studies in Dilute Solutions. […] Subsequently, 1 mL of DI water was added to wash the pellet (followed by vortexing until obtaining a homogenous dispersion) in order to remove any unbound inhibitor. The samples were then centrifuged again at the same conditions so as to pelletize the amyloid materials, and the supernatant was decanted. Another 1 mL of DI water was then added into the pellet, the mixture was vortexed, and the physically bound inhibitor into the dilute amyloid peptide dispersions was quantified by UV-Vis between 200-600 nm and MS. This step is denoted as wash 1 in our study. Two additional pellet purification cycles were realized with replacement of the decanted volume each time with 1 mL of fresh DI water (denoted as wash 2 and wash 3 respectively). The inhibitor-containing peptides amyloids were normalized at 400 nm over the respective no inhibitor-containing amyloid peptides at the specific washing step, and the measured inhibitor peak values (at 315 nm and 323 nm) were subtracted from that of the amyloid peptide carriers at the same wavelength and concentration. The amount of inhibitors coordinated with the amyloid peptide carriers was quantified based on a calibration curve by both UV-Vis and MS.
The peak at 315 nm was selected for inhibitor quantification due the absence of peaks at that range for both peptides. […] However, the peak at 315 nm was selected for inhibitor quantification, and the following equation was used for both peptides: A315=A315 ([…]/Donepezil)−A315 ([…])
The peak at 323 nm was used for inhibitor quantification due the absence of peaks at that range for both peptides.

[2] = test system: […] (SEQ ID NO: 4) amyloid peptide; experiment: Incubation of amyloid gel containing inhibitor in PBS at 37° C., drug retained; assay type: binding; conditions: YFTGAIIGNFY 5 mg/mL; for AD compound captured after incubation, Wash 2: 2nd pellet wash; for AD compound captured after incubation, Wash 3: 3rd pellet wash
Procedure: Incubation of Amyloid Gels-Containing Inhibitors in PBS at 37° C. […] (SEQ ID NO: 4) amyloid gels were prepared at 10 mg/mL (1 mL) and a 0.1 M PBS solution of Donepezil was added at 1000 μM (1 mL) and was left to stir overnight (the final peptide concentration was diluted to 5 mg/mL). A control of 1 mL 0.1 M PBS was also prepared. The complexed amyloid/inhibitor was sequentially centrifuged, and the same volume of water (2 mL) was added in the pellet to wash it (followed by vortexing until obtaining a complete dispersion) and remove the unbound inhibitor (wash 1). The sample was centrifuged, the pellet was isolated, and 2 mL of 0.1 M PBS was added, followed by overnight incubation under stirring at 37° C. The inhibitor-containing peptide was then pelletized, the supernatant was decanted, and the peptide/inhibitor dispersion was quantified after addition of 2 mL water (wash 2). A second washing step with 2 mL fresh water was subsequently realized and the pellet was quantified again (wash 3). Example 2: Coordination of the Designed Amyloid Peptides with AD drugs in Dilute Solution.

[3] = incubated at 37° C. in PBS for one day after wash 1, by MS
[4] = incubated at 37° C. in PBS for one day after wash 1, by UV-Vis

Question: With `COc1cc2c(cc1OC)C(=O)C(CC1CCN(Cc3ccccc3)CC1)C2` (stereo not drawn) [donepezil] as the compound, how does the “AD compound captured, Wash 1” value ([1]; FYTGAIIGNYF 1 mg/mL, by MS) read?
Answer: 51 ± 3 µM

Question: And the “AD compound captured, Wash 2” value ([1]; FYTGAIIGNYF 1 mg/mL, by MS)?
Answer: 47 ± 0 µM

Question: And the “AD compound captured, Wash 3” value ([1]; FYTGAIIGNYF 1 mg/mL, by MS)?
Answer: 43 ± 4 µM

Question: And the “AD compound captured, Wash 1” value ([1]; FYTGAIIGNYF 1 mg/mL, by UV-Vis)?
Answer: 33 µM

Question: What about the “AD compound captured, Wash 1” value ([1]; FYTGAIIGNYF 1 mg/mL, by UV-Vis, listed as Donepezil) of the same compound?
Answer: 33 ± 4 µM

Question: And the “AD compound captured, Wash 2” value ([1]; FYTGAIIGNYF 1 mg/mL, by UV-Vis)?
Answer: 28 ± 5 µM

Question: What about the “AD compound captured, Wash 3” value ([1]; FYTGAIIGNYF 1 mg/mL, by UV-Vis) of the same compound?
Answer: 20 ± 5 µM

Question: What about the “fraction of the 150 μM loaded drug incorporated into the peptide” value ([1]; FYTGAIIGNYF 1 mg/mL) of the same compound?
Answer: approximately ⅕

Question: And the “AD compound captured after incubation, Wash 2” value [2, 3]?
Answer: 128 ± 12 µM

Question: What about the “AD compound captured after incubation, Wash 3” value [2, 3] of the same compound?
Answer: 120 ± 18 µM

Question: What about the “AD compound captured after incubation, Wash 2” value [2, 4] of the same compound?
Answer: 121 ± 25 µM

Question: What about the “AD compound captured after incubation, Wash 3” value [2, 4] of the same compound?
Answer: 110 ± 31 µM

Question: Which results are given for `Nc1c2c(nc3ccccc13)CCCC2` [tacrine]?
Answer: AD compound captured, Wash 1 ([1]; […] 1 mg/mL, by MS): 29 ± 4 µM; AD compound captured, Wash 2 ([1]; […] 1 mg/mL, by MS): 24 ± 8 µM; AD compound captured, Wash 3 ([1]; […] 1 mg/mL, by MS): 23 ± 6 µM; AD compound captured, Wash 2 ([1]; […] 1 mg/mL, by UV-Vis): 17 ± 4 µM; AD compound captured, Wash 3 ([1]; […] 1 mg/mL, by UV-Vis): 13 ± 3 µM; fraction of the 150 μM loaded drug incorporated into the peptide ([1]; […] 1 mg/mL): approximately 1/7
